Experiments:
[1] = test system: Wister-strain male rats; assay: Acute Toxicity Test (intravenous); type: in vivo, rat; details: 100 ml/kg-body weight, isotonized emulsion (Table 4), observed one week
Protocol: The acute toxicity test on the preparations of the present invention was carried out using the preparations of the present invention shown in Table 4 which had been physiologically isotonized. The test animals used were Wister-strain male rats (weighing 100-120 g).

[2] = Distribution of Perfluoro-compound in Organs (gas chromatography); type: in vivo, Wister-strain male rats; details: for Residual Rate of perfluorobicyclo compound: 3 Months, 4 g/kg tail vein
Text: The content of perfluoro-4-methyloctanhydroquinolidine uptake in each organ 1, 2 and 4 weeks and 3 months after the administration are shown in Table 5.

SMILES | death cases [1] | adverse influence on the liver or spleen organ ([2]; 4 g/kg into the tail vein, 3 months) | Residual Rate of perfluorobicyclo compound ([2]; Liver) | Residual Rate of perfluorobicyclo compound ([2]; Spleen)
FC(F)(F)C(F)(F)C1(F)N2C(F)(F)C(F)(F)C(F)(F)C(F)(F)C2(F)C(F)(F)C(F)(F)C1(F)F (centres unmarked) [perfluoro-4-ethyloctahydroquinolidine] | no death case | – | – | –
FC(F)(F)C1(F)N2C(F)(F)C(F)(F)C(F)(F)C(F)(F)C2(F)C(F)(F)C(F)(F)C1(F)F (centres unmarked) [perfluoro-4-methyloctahydroquinolidine] | no death case | no evidence of adverse influence on the liver or spleen organ | 0.30% | 0.09%
